Assay results reported in ChEMBL document CHEMBL3885861, “Open TG-GATES”.

Species on record: Rattus norvegicus
Assay: Open TG-GATES - Regimen: Daily Repeat
Type: toxicity, organism-based, Sprague-Dawley
Design: regimen Daily Repeat, gender Male, age 6 weeks
Details: in vivo, po, route gavage; for APTT / Bas / Eos / Fbg / Hb / Ht / Lym / MCH / MCHC / MCV / Mono / Neu / PT / Plat / RBC / Ret / WBC: tissue Blood; for KIDNEY_L / KIDNEY_R / KIDNEY_TOTAL: tissue Kidney; for LIVER: tissue Liver; for A/G / ALP / ALT / AST / BUN / CRE / Ca / Cl / DBIL / GLC / IP / K / LDH / Na / PL / RALB / TBIL / TC / TG / TP / gamma-GTP: tissue Plasma
[1] = 0 mg/kg, 72 h, dose level Control, time 3 day
[2] = 0 mg/kg, […], dose level Control, time 7 day
[3] = 0 mg/kg, […], dose level Control, time 14 day
[4] = 0 mg/kg, […], dose level Control, time 28 day
[5] = 5 mg/kg, 72 h, dose level Low, time 3 day
[6] = 5 mg/kg, […], dose level Low, time 7 day
[7] = 5 mg/kg, […], dose level Low, time 14 day
[8] = 5 mg/kg, […], dose level Low, time 28 day

## CC(=N)S [THIOACETAMIDE]
[1]
  TERMINAL_BW: 229.8 g
  APTT: 17 s
  Bas: 0%
  Eos: 1%
  Fbg: 232.2 mg/dL
  Hb: 13.8 g/dL
  Ht: 42.6%
  Lym: 74.8%
  MCH: 21.2 pg
  MCHC: 32.5%
  MCV: 65.3 fL
  Mono: 8%
  Neu: 16.4%
  PT: 11.5 s
  Plat: 111.4 x10_4/uL
  RBC: 652.8 x10_4/ul
  Ret: 7%
  WBC: 125.1 x10_2/uL
  KIDNEY_L: 1 g
  KIDNEY_R: 1 g
  KIDNEY_TOTAL: 2 g
  LIVER: 10.7 g
  A/G: 2.1
  ALP: 1014.4 IU/L
  ALT: 31 IU/L
  AST: 62.2 IU/L
  BUN: 17 mg/dL
  CRE: 0.6 mg/dL
  Ca: 10.4 mg/dL
  Cl: 104.2 meq/L
  DBIL: 0.018 mg/dL
  GLC: 196.6 mg/dL
  IP: 7.6 mg/dL
  K: 4.9 meq/L
  LDH: 88 IU/L
  Na: 137.6 meq/L
  PL: 157.4 mg/dL
  RALB: 4 g/dL
  TBIL: 0.4 mg/dL
  TC: 80.4 mg/dL
  TG: 106.6 mg/dL
  TP: 5.8 g/dL
  gamma-GTP: 1 IU/L
[2]
  TERMINAL_BW: 254.8 g
  APTT: 17.3 s
  Bas: 0%
  Eos: 1%
  Fbg: 226.2 mg/dL
  Hb: 13.8 g/dL
  Ht: 41.8%
  Lym: 83.6%
  MCH: 20.8 pg
  MCHC: 33%
  MCV: 63.1 fL
  Mono: 4.4%
  Neu: 10.8%
  PT: 11.8 s
  Plat: 111.5 x10_4/uL
  RBC: 661.6 x10_4/ul
  Ret: 5.3%
  WBC: 145.6 x10_2/uL
  KIDNEY_L: 1.1 g
  KIDNEY_R: 1.1 g
  KIDNEY_TOTAL: 2.1 g
  LIVER: 11.8 g
  A/G: 1.8
  ALP: 868.8 IU/L
  ALT: 27.4 IU/L
  AST: 56.8 IU/L
  BUN: 19.4 mg/dL
  CRE: 0.6 mg/dL
  Ca: 10.3 mg/dL
  Cl: 104.4 meq/L
  DBIL: 0.016 mg/dL
  GLC: 190.2 mg/dL
  IP: 7.1 mg/dL
  K: 5.2 meq/L
  LDH: 79 IU/L
  Na: 136.2 meq/L
  PL: 154.6 mg/dL
  RALB: 3.9 g/dL
  TBIL: 0.3 mg/dL
  TC: 75 mg/dL
  TG: 145.8 mg/dL
  TP: 6.1 g/dL
  gamma-GTP: 1 IU/L
[3]
  TERMINAL_BW: 312.2 g
  APTT: 17.4 s
  Bas: 0%
  Eos: 0.8%
  Fbg: 223.8 mg/dL
  Hb: 14.6 g/dL
  Ht: 44.1%
  Lym: 81%
  MCH: 20.2 pg
  MCHC: 33.1%
  MCV: 61.1 fL
  Mono: 5.8%
  Neu: 12.6%
  PT: 11.8 s
  Plat: 101.4 x10_4/uL
  RBC: 722.8 x10_4/ul
  Ret: 4.5%
  WBC: 145.6 x10_2/uL
  KIDNEY_L: 1.2 g
  KIDNEY_R: 1.2 g
  KIDNEY_TOTAL: 2.3 g
  LIVER: 13.8 g
  A/G: 2
  ALP: 716 IU/L
  ALT: 32.2 IU/L
  AST: 64.8 IU/L
  BUN: 18.6 mg/dL
  CRE: 0.6 mg/dL
  Ca: 10.1 mg/dL
  Cl: 103 meq/L
  DBIL: 0.002 mg/dL
  GLC: 181.6 mg/dL
  IP: 7.1 mg/dL
  K: 4.7 meq/L
  LDH: 76 IU/L
  Na: 134.8 meq/L
  PL: 169 mg/dL
  RALB: 4.1 g/dL
  TBIL: 0.3 mg/dL
  TC: 81.6 mg/dL
  TG: 158.6 mg/dL
  TP: 6.1 g/dL
  gamma-GTP: 1.4 IU/L
[4]
  TERMINAL_BW: 377.5 g
  APTT: 17.5 s
  Bas: 0%
  Eos: 1%
  Fbg: 248.6 mg/dL
  Hb: 15.9 g/dL
  Ht: 46.8%
  Lym: 86.2%
  MCH: 19.7 pg
  MCHC: 33.9%
  MCV: 58 fL
  Mono: 4%
  Neu: 9.2%
  PT: 10.8 s
  Plat: 104.1 x10_4/uL
  RBC: 807.6 x10_4/ul
  Ret: 2.8%
  WBC: 194 x10_2/uL
  KIDNEY_L: 1.4 g
  KIDNEY_R: 1.4 g
  KIDNEY_TOTAL: 2.7 g
  LIVER: 15.2 g
  A/G: 1.9
  ALP: 629 IU/L
  ALT: 29.4 IU/L
  AST: 63 IU/L
  BUN: 18.8 mg/dL
  CRE: 0.6 mg/dL
  Ca: 10.1 mg/dL
  Cl: 103 meq/L
  DBIL: 0 mg/dL
  GLC: 179.4 mg/dL
  IP: 6.8 mg/dL
  K: 4.5 meq/L
  LDH: 96.4 IU/L
  Na: 135.4 meq/L
  PL: 172.8 mg/dL
  RALB: 4.1 g/dL
  TBIL: 0.2 mg/dL
  TC: 83 mg/dL
  TG: 174.6 mg/dL
  TP: 6.3 g/dL
  gamma-GTP: 1.2 IU/L
[5]
  TERMINAL_BW: 228.6 g
  APTT: 16.9 s
  Bas: 0%
  Eos: 1%
  Fbg: 234 mg/dL
  Hb: 13.6 g/dL
  Ht: 41.4%
  Lym: 78.8%
  MCH: 21 pg
  MCHC: 32.9%
  MCV: 63.8 fL
  Mono: 8.2%
  Neu: 12.2%
  PT: 11.6 s
  Plat: 111 x10_4/uL
  RBC: 649.4 x10_4/ul
  Ret: 6.6%
  WBC: 139.8 x10_2/uL
  KIDNEY_L: 1 g
  KIDNEY_R: 1.1 g
  KIDNEY_TOTAL: 2.1 g
  LIVER: 11.7 g
  A/G: 2.1
  ALP: 900 IU/L
  ALT: 28 IU/L
  AST: 58.8 IU/L
  BUN: 16.2 mg/dL
  CRE: 0.5 mg/dL
  Ca: 10.7 mg/dL
  Cl: 104.8 meq/L
  DBIL: 0.004 mg/dL
  GLC: 192.6 mg/dL
  IP: 7.8 mg/dL
  K: 4.7 meq/L
  LDH: 95.2 IU/L
  Na: 137 meq/L
  PL: 159.8 mg/dL
  RALB: 4 g/dL
  TBIL: 0.3 mg/dL
  TC: 83.2 mg/dL
  TG: 123.2 mg/dL
  TP: 5.9 g/dL
  gamma-GTP: 2 IU/L
[6]
  TERMINAL_BW: 252.6 g
  APTT: 16.4 s
  Bas: 0%
  Eos: 1%
  Fbg: 229.2 mg/dL
  Hb: 13.8 g/dL
  Ht: 41.5%
  Lym: 82%
  MCH: 20.9 pg
  MCHC: 33.3%
  MCV: 62.9 fL
  Mono: 6.6%
  Neu: 10.2%
  PT: 12.1 s
  Plat: 111.2 x10_4/uL
  RBC: 660.4 x10_4/ul
  Ret: 5.3%
  WBC: 155.6 x10_2/uL
  KIDNEY_L: 1 g
  KIDNEY_R: 1.1 g
  KIDNEY_TOTAL: 2.1 g
  LIVER: 12.3 g
  A/G: 1.9
  ALP: 742.6 IU/L
  ALT: 31.8 IU/L
  AST: 56 IU/L
  BUN: 18 mg/dL
  CRE: 0.5 mg/dL
  Ca: 10.5 mg/dL
  Cl: 105 meq/L
  DBIL: 0.008 mg/dL
  GLC: 186.6 mg/dL
  IP: 7.6 mg/dL
  K: 5.1 meq/L
  LDH: 84.8 IU/L
  Na: 135.2 meq/L
  PL: 160 mg/dL
  RALB: 3.9 g/dL
  TBIL: 0.3 mg/dL
  TC: 76.4 mg/dL
  TG: 167.4 mg/dL
  TP: 6 g/dL
  gamma-GTP: 1.4 IU/L
[7]
  TERMINAL_BW: 308.5 g
  APTT: 17.1 s
  Bas: 0%
  Eos: 0.8%
  Fbg: 231.8 mg/dL
  Hb: 14.6 g/dL
  Ht: 44.1%
  Lym: 83.6%
  MCH: 19.8 pg
  MCHC: 33.1%
  MCV: 59.9 fL
  Mono: 6%
  Neu: 10%
  PT: 12.3 s
  Plat: 102 x10_4/uL
  RBC: 736.2 x10_4/ul
  Ret: 3.9%
  WBC: 165.2 x10_2/uL
  KIDNEY_L: 1.2 g
  KIDNEY_R: 1.2 g
  KIDNEY_TOTAL: 2.4 g
  LIVER: 13.6 g
  A/G: 2
  ALP: 870.6 IU/L
  ALT: 29.8 IU/L
  AST: 62 IU/L
  BUN: 18.2 mg/dL
  CRE: 0.6 mg/dL
  Ca: 10.2 mg/dL
  Cl: 104.6 meq/L
  DBIL: 0.006 mg/dL
  GLC: 185.4 mg/dL
  IP: 6.8 mg/dL
  K: 5 meq/L
  LDH: 78.6 IU/L
  Na: 134.2 meq/L
  PL: 135.8 mg/dL
  RALB: 4.1 g/dL
  TBIL: 0.4 mg/dL
  TC: 61.6 mg/dL
  TG: 156.8 mg/dL
  TP: 6.2 g/dL
  gamma-GTP: 2 IU/L
[8]
  TERMINAL_BW: 375.1 g
  APTT: 17 s
  Bas: 0%
  Eos: 0.8%
  Fbg: 242.4 mg/dL
  Hb: 15 g/dL
  Ht: 44.9%
  Lym: 85.2%
  MCH: 19.6 pg
  MCHC: 33.5%
  MCV: 58.5 fL
  Mono: 3.6%
  Neu: 10.4%
  PT: 11.1 s
  Plat: 111.7 x10_4/uL
  RBC: 767.8 x10_4/ul
  Ret: 3%
  WBC: 184.6 x10_2/uL
  KIDNEY_L: 1.3 g
  KIDNEY_R: 1.4 g
  KIDNEY_TOTAL: 2.7 g
  LIVER: 16.5 g
  A/G: 1.6
  ALP: 613.4 IU/L
  ALT: 25.8 IU/L
  AST: 54.6 IU/L
  BUN: 21.6 mg/dL
  CRE: 0.6 mg/dL
  Ca: 10.2 mg/dL
  Cl: 103 meq/L
  DBIL: 0 mg/dL
  GLC: 164 mg/dL
  IP: 6.9 mg/dL
  K: 4.6 meq/L
  LDH: 90.2 IU/L
  Na: 135.2 meq/L
  PL: 135.6 mg/dL
  RALB: 3.9 g/dL
  TBIL: 0.3 mg/dL
  TC: 60.8 mg/dL
  TG: 131.8 mg/dL
  TP: 6.4 g/dL
  gamma-GTP: 1.6 IU/L
